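Values below derive from 48-hour exposures of cells grown in 96-well plates, with endpoints linearly interpolated between the two concentrations bracketing the appropriate inhibition level. Abbreviation: GI50, concentration required for 50% inhibition of growth.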 Activity calls are given as the source filed them. Cut-off read from the data, not from the text of the source: active = GI50 up to about 1.1 µM and inactive = higher.
Experiments:
Assay in all cases: NCI tumour cell line growth inhibition, 48 h
[1] = test system: 786-0
[2] = test system: BT-549
[3] = test system: CAKI-1
[4] = test system: HCT-116
[5] = test system: HCT-15
[6] = test system: Hs-578T
[7] = test system: IGROV-1
[8] = test system: MDA-MB-435
[9] = test system: Malme-3M
[10] = test system: NCI-H226
[11] = test system: NCI-H460
[12] = test system: OVCAR-8
[13] = test system: PC-3
[14] = test system: RXF 393
[15] = test system: SF-268
[16] = test system: SF-539
[17] = test system: SK-MEL-2
[18] = test system: SW-620
[19] = test system: T47D
[20] = test system: TK-10

Nc1c(Br)cc(-c2nc3ccccc3s2)cc1Br
GI50 [1]: > 100 µM (inactive)
GI50 [2]: > 100 µM (inactive)
GI50 [3]: > 100 µM (inactive)
GI50 [4]: > 100 µM (inactive)
GI50 [5]: > 100 µM
GI50 [6]: > 100 µM (inactive)
GI50 [7]: 5.12 µM (inactive)
GI50 [8]: > 100 µM (inactive)
GI50 [9]: > 100 µM (inactive)
GI50 [10]: > 100 µM (inactive)
GI50 [11]: > 100 µM (inactive)
GI50 [12]: > 100 µM (inactive)
GI50 [13]: > 100 µM (inactive)
GI50 [14]: > 100 µM (inactive)
GI50 [15]: > 100 µM (inactive)
GI50 [16]: > 100 µM (inactive)
GI50 [17]: > 100 µM (inactive)
GI50 [18]: > 100 µM (inactive)
GI50 [19]: > 100 µM (inactive)
GI50 [20]: 6.85 µM (inactive)

OC1(c2ccc3ccccc3c2)c2c(c3ccccc3c3ccccc23)C2=NCCN21 (stereo not given)
GI50 [1]: 7.5 µM (inactive)
GI50 [2]: 14.7 µM (inactive)
GI50 [3]: 11.7 µM (inactive)
GI50 [4]: 2.88 µM (inactive)
GI50 [5]: 4.63 µM
GI50 [6]: 6.14 µM (inactive)
GI50 [7]: 3.85 µM (inactive)
GI50 [8]: 2.17 µM (inactive)
GI50 [9]: 10.4 µM (inactive)
GI50 [10]: 34.5 µM (inactive)
GI50 [11]: 4.3 µM (inactive)
GI50 [12]: 4.44 µM (inactive)
GI50 [13]: 4.54 µM (inactive)
GI50 [14]: 2.47 µM (inactive)
GI50 [15]: 5.79 µM (inactive)
GI50 [16]: 5.45 µM (inactive)
GI50 [17]: 7.16 µM (inactive)
GI50 [18]: 3.34 µM (inactive)
GI50 [19]: 4.45 µM (inactive)
GI50 [20]: 7.98 µM (inactive)

CC(C)c1ccc(/C(C(=O)O)=C(\O)C(=O)O)cc1
GI50 [1]: > 100 µM (inactive)
GI50 [2]: > 100 µM (inactive)
GI50 [3]: > 100 µM (inactive)
GI50 [4]: > 100 µM (inactive)
GI50 [5]: > 100 µM
GI50 [6]: > 100 µM (inactive)
GI50 [7]: > 100 µM (inactive)
GI50 [8]: > 100 µM (inactive)
GI50 [9]: > 100 µM (inactive)
GI50 [10]: > 100 µM (inactive)
GI50 [11]: > 100 µM (inactive)
GI50 [12]: > 100 µM (inactive)
GI50 [13]: > 100 µM (inactive)
GI50 [14]: > 100 µM (inactive)
GI50 [15]: > 100 µM (inactive)
GI50 [16]: > 100 µM (inactive)
GI50 [17]: > 100 µM (inactive)
GI50 [18]: > 100 µM (inactive)
GI50 [19]: > 100 µM (inactive)
GI50 [20]: > 100 µM (inactive)

O=C(N/N=C/c1ccc2c(c1)CCC2)c1ccccc1O
GI50 [1]: 18.5 µM (inactive)
GI50 [2]: 19.3 µM (inactive)
GI50 [3]: 28.4 µM (inactive)
GI50 [4]: 19.4 µM (inactive)
GI50 [5]: 22.9 µM
GI50 [6]: 22.9 µM (inactive)
GI50 [7]: 17.8 µM (inactive)
GI50 [8]: 21.5 µM (inactive)
GI50 [9]: 21.4 µM (inactive)
GI50 [10]: 32.1 µM (inactive)
GI50 [11]: 22.1 µM (inactive)
GI50 [12]: 25.4 µM (inactive)
GI50 [13]: 19.7 µM (inactive)
GI50 [14]: 23 µM (inactive)
GI50 [15]: 23.8 µM (inactive)
GI50 [16]: 31.5 µM (inactive)
GI50 [17]: 23.4 µM (inactive)
GI50 [18]: 31.1 µM (inactive)
GI50 [19]: 25.5 µM (inactive)
GI50 [20]: 23 µM (inactive)

Cc1cc(C)nc(NS(=O)(=O)c2ccc(NNc3c4ccccc4nc4c(C(=O)Nc5ccc(S(=O)(=O)Nc6ncccn6)cc5)cccc34)cc2)n1
GI50 [1]: 39.3 µM (inactive)
GI50 [2]: 36.8 µM (inactive)
GI50 [3]: 36.3 µM (inactive)
GI50 [4]: 17.4 µM (inactive)
GI50 [5]: 32.7 µM
GI50 [6]: 71.8 µM (inactive)
GI50 [7]: 35 µM (inactive)
GI50 [8]: 21.5 µM (inactive)
GI50 [9]: 26.7 µM (inactive)
GI50 [10]: 22.5 µM (inactive)
GI50 [11]: 25.6 µM (inactive)
GI50 [12]: 26.2 µM (inactive)
GI50 [13]: 26.5 µM (inactive)
GI50 [14]: 35.3 µM (inactive)
GI50 [15]: 31.9 µM (inactive)
GI50 [16]: 27 µM (inactive)
GI50 [17]: 16.2 µM (inactive)
GI50 [18]: 21.6 µM (inactive)
GI50 [19]: 26.1 µM (inactive)
GI50 [20]: 50.9 µM (inactive)

Reference: ChEMBL document CHEMBL1201862, “PubChem BioAssay data set” (2004)
